Legend:
DUB activity = assay: Western / HA-UbVS labeling of DUB activity in intact cells; type: cell-based
Procedure: (§1) To assay for changes in activity of cellular deubiquitinase enzymes, leukemic cells were lysed in DUB buffer (50 mM Tris pH 7.4, 5 mM MgCl2, 150 mM NaCl) for 10 min at 4° C. The lysates were centrifuged at 20,000 RCF for 10 min and the supernatant was used for DUB labeling. Equal amounts of lysate were incubated with 500 ng of HA-UbVs for 1 hr at room temperature, followed by boiling in reducing sample buffer and resolving by SDS-PAGE. HA immunoblotting was used to detect DUB labeling.
as §1, with “Z138 and HEK293” for “leukemic”, “RFC” for “RCF”, “SDS-PAGE. After protein transfer to nitrocellulose membranes,” for “SDS-PAGE.”
Cancer Res, 2010. 70(22): p. […] Blood, 2011. 117(11): p. […] Biochem Pharmacol, 2011. 82(4): p. […] Blood, 2007. 109(8): p. 3470-8.

[1] = system: Vesicular Stomatitis Virus (VSV); type: cell-based
USP5 = biological target: T1, USP5 (Homo sapiens, UniProt P45974); assay: HA-UbVs labeling of USP5; type: cell-based
T1 construct: endogenous in cells; host or cells: Z138
T1 sequence (P45974 1-858): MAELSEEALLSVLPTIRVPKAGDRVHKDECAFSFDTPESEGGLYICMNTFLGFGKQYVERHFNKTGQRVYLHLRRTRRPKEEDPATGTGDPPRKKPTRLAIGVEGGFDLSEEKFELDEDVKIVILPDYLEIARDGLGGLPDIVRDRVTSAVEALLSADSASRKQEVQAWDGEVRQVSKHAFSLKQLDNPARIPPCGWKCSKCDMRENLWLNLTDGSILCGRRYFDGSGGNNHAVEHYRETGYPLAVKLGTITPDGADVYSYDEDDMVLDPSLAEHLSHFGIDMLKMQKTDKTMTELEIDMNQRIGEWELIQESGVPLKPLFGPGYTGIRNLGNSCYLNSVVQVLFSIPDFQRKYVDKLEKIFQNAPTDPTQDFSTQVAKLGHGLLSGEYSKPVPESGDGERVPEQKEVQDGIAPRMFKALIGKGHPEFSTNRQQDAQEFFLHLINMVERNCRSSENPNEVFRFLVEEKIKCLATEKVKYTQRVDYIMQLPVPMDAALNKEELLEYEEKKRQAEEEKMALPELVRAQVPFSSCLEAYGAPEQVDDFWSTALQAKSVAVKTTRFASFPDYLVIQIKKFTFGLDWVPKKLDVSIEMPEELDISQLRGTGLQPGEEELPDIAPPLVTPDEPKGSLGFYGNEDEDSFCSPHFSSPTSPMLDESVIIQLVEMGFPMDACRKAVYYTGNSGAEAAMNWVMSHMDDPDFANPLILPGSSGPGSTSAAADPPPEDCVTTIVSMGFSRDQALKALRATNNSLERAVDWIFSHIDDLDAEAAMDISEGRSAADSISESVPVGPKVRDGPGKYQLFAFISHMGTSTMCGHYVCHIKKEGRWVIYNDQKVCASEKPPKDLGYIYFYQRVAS
Procedure: as §1, with “Z138 and HEK293” for “leukemic”, “RFC” for “RCF”, “SDS-PAGE. After protein transfer to nitrocellulose membranes,” for “SDS-PAGE.”
Hemagglutinin-tagged ubiquitin vinyl methyl sulfone (HA-UbVs) acts as a DUB suicide substrate, forming a covalent adduct with active DUB enzymes. Specific cellular DUBs can be identified by anti-HA blotting, as previously shown in various cell types. Changes in specific DUB activities are measurable by monitoring HA-labeling in lysates from control and treated cells. […]
USP9x was immunoprecipitated from Z138 cell lysates, prepared in DUB buffer and the beads were incubated with vehicle alone or WP1130 for 30 min. Ub-AMC (500 nM) was added to each reaction and fluorescence was monitored every minute for up to 30 minutes. The maximum fluorescence observed at the end of the linear phase of substrate cleavage in control and WP1130 treated DUBs was used as a gauge to estimate DUB activity and % inhibition. […]

USP14 = biological target: T2, USP14 (Homo sapiens, UniProt P54578); assay: HA-UbVs labeling of USP14; type: cell-based; settings: Z138 cells, 1, 5 or 10 μM, 1 hour
T2 construct: endogenous in cells; host or cells: Z138
T2 sequence (P54578 whole entry): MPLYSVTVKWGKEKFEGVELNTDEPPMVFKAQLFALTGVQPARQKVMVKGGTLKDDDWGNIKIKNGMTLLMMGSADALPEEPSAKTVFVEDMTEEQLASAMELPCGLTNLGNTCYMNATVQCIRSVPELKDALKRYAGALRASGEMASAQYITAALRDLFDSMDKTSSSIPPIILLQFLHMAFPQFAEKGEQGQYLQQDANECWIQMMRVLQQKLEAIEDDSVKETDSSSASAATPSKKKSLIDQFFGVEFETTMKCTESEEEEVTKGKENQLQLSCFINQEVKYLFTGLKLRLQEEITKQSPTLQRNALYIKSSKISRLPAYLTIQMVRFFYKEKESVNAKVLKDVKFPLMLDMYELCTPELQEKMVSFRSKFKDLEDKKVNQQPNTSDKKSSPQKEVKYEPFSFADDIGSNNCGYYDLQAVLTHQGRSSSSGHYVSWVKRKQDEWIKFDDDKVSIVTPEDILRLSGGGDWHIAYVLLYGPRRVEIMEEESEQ
Procedure: as §1, with “Z138 and HEK293” for “leukemic”, “RFC” for “RCF”, “SDS-PAGE. After protein transfer to nitrocellulose membranes,” for “SDS-PAGE.”
Hemagglutinin-tagged ubiquitin vinyl methyl sulfone (HA-UbVs) acts as a DUB suicide substrate, forming a covalent adduct with active DUB enzymes. Specific cellular DUBs can be identified by anti-HA blotting, as previously shown in various cell types. Changes in specific DUB activities are measurable by monitoring HA-labeling in lysates from control and treated cells. Z138 cells were treated with WP1130 at 1, 5, or 10 μM or AG490 at 250 μM for 1 hours and lysed. 20 μg of clarified supernatant was incubated with 200 nM of HA-UbVS for 1 hr at 37° C. […] An in vitro analysis using cell lysates was performed to investigate direct DUB inhibition by WP1130. Briefly, untreated Z138 cell lysates were incubated with 5 μM WP1130 or vehicle alone for one hour at 37° C., followed by labeling with HA-UbVs.

[2] = system: CML and melanoma xenografts; assay: Xenograft mouse models of CML and melanoma; type: in vivo
p53 = p53 immunoblot; type: cell-based; settings: Z138 cells
Procedure: Whole cell lysates were prepared by boiling and sonicating the cell pellets in 1× Laemmli reducing sample buffer. To prepare detergent soluble and insoluble fractions, cells were lysed in cold isotonic lysis buffer [10 mM Tris-HCl (pH 7.5), 0.5% Triton X-100, 150 mM NaCl along with Mini-Complete and PhosSTOP] for 15 min on ice and centrifuged 10 minutes at 20,000 RCF. The clarified supernatant was used as a source of the detergent soluble cell fraction. The detergent insoluble fraction was extracted by the sonication of residual pellet in equal volumes of boiling 1× Laemmli reducing sample buffer. Equal volumes of cellular lysate or equal protein amounts were electrophoresed on SDS-PAGE gels.
An increase in p53 protein levels was observed upon WP1130 treatment. Co-treatment of Z138 cells with cycloheximide (50 μg/mL) and WP1130 confirmed the stabilization rather than induction of p53 protein. Furthermore, a rapid decline in MCL-1 levels upon WP1130 treatment was observed. To re-confirm the role played by USP9x and USP5 in regulating the levels of MCL-1 and p53 respectively, a siRNA based knockdown of USP9x and USP5 in HEK293T cells was performed.

Hsp70 = Hsp70 immunoblot; type: cell-based; settings: CML cells
Sindbis virus = Sindbis virus plaque assay; settings: African green monkey epithelial cells (Vero), 5 μM, 30 min pre-treatment

Structure (SMILES): CCC[C@H](NC(=O)/C(C#N)=C/c1cccc(Br)n1)c1ccccc1 [WP1130]
- blocking MNV-1 or DUB activation associated with MNV-1 infection (DUB activity; RAW 264.7, 1.25 μM): ineffective
- DUB activity induced by MNV-1 infection (HA-UbVS) (DUB activity; RAW 264.7, anti-viral effective concentrations): block DUB activity
- block of virus infection [1]: not
- reduction in HA labeling of USP5 (USP5; HA-UbVs labeling upon incubation with compound): about 80%
- HA-UbVS labeling of USPS (USP5; Z138 cells, 1, 5 or 10 μM, 1 hour): dose-dependent and time reduction in the labeling
- HA-UbVS labeling of USP14 (USP14): dose-dependent and time reduction in the labeling
- tumor growth in vivo [2]: effectively suppresses tumor growth
- p53 protein levels (p53): increase
- Hsp70 protein levels (Hsp70): increased
- Log inhibition by plaque assay (Sindbis virus): 2-2.5 log
- Log inhibition by plaque assay (Sindbis virus; listed as HWP1130): 2 log
